# Assay: Related substances of active ingredient A, samples placed at 50° C. for 10 days
# Type: physicochemical
# Conditions: mixed powders
# Experimental: The raw and auxiliary materials were weighed based on the formulation amount and mixed well. The mixed powder of each example was wrapped separately in a clean weighing paper, sealed in an aluminum foil bag, and placed at 50° C. for 10 days. Samples were then taken, determined for related substances and compared with the comparative example.
smiles,measurement,value
"CCOc1ccc(Cc2cc([C@@H]3O[C@H](CO)[C@@H](O)[C@H](O)[C@H]3O)ccc2Cl)cc1 [active ingredient B, Dapagliflozin]",Related substances of active ingredient B after placed under the influencing factor,no increase in impurities

# From patent publication US20230346817A1, “COMPOSITION AND USE OF SGLT-2 INHIBITOR AND ANGIOTENSIN RECEPTOR BLOCKERS” (Beijing Creatron Institute of Pharmaceutical Research Co. …, priority 2020, published 2023)
